Experimental data from ChEMBL document CHEMBL5131474, “Resveratrol inhibited hepatocyte apoptosis and alleviated liver fibrosis through miR-190a-5p /HGF axis” (2022).
Active and inactive are the calls of the source. The calls are words filed in the database; no cut-off is given here.

How the values were obtained:
Hepatocyte [1] = test: Induction of apoptosis in TGF-beta1-stimulated C57/B6J mouse primary hepatocytes assessed as reversal of miR-190a-5p inhibitor induced decrease in cleaved-caspase 3 expression at 10 uM by Western blot analysis; assay type: functional, cell-based
Hepatocyte [2] = test: Inhibition of TGF-beta1 induced apoptosis in C57/B6J mouse primary hepatocytes assessed as early apoptotic cells at 10 uM in presence of miR-190a-5p inhibitor by Annexin-V-FITC-H and PI staining based flow cytometry analysis (reference value: 18.90 %); assay type: functional; parameters: scale not given: the % may be the effect or the level left
Hepatocyte [3] = test: Inhibition of TGF-beta1 induced apoptosis in C57/B6J mouse primary hepatocytes assessed as live cells at 10 uM in presence of miR-190a-5p inhibitor by Annexin-V-FITC-H and PI staining based flow cytometry analysis (reference value: 61.65 %); assay type: functional; parameters: scale not given: the % may be the effect or the level left
Hepatocyte [4] = test: Inhibition of TGF-beta1 induced apoptosis in C57/B6J mouse primary hepatocytes assessed as late apoptotic cells at 10 uM in presence of miR-190a-5p inhibitor by Annexin-V-FITC-H and PI staining based flow cytometry analysis (reference value: 13.96 %); assay type: functional; parameters: scale not given: the % may be the effect or the level left
Hepatocyte [5] = test: Downregulation of TGF-beta1 and miR-190a-5p inhibitor induced HGF protein expression C57/B6J mouse primary hepatocytes at 10 uM by Western blot analysis; assay type: functional, cell-based
Hepatocyte [6] = test: Downregulation of TGF-beta1 and miR-190a-5p inhibitor induced HGF mRNA expression in C57/B6J mouse primary hepatocytes at 10 uM by qRT-PCR analysis; assay type: functional, cell-based
Hepatocyte [7] = test: Inhibition of TGF-beta1 induced apoptosis in C57/B6J mouse primary hepatocytes assessed as dead cells at 10 uM in presence of miR-190a-5p inhibitor by Annexin-V-FITC-H and PI staining based flow cytometry analysis (reference value: 5.49 %); assay type: functional; parameters: scale not given: the % may be the effect or the level left
Hepatocyte [8] = test: Induction of apoptosis in TGF-beta1-stimulated C57/B6J mouse primary hepatocytes assessed as reversal of miR-190a-5p inhibitor induced increase in Bcl-2 expression at 10 uM by Western blot analysis; assay type: functional, cell-based
HepG2 = test: Downregulation of miR-190a-5p expression in TGF-beta induced human HepG2 cells at 10 to 50 uM incubated for 4 hrs by qRT-PCR analysis; assay type: functional, cell-based; details: dose 10-50 µM
Hepatocyte [9] = test: Inhibition of TGF-beta1 induced apoptosis in C57/B6J mouse primary hepatocytes assessed as early apoptotic cells in presence of miR-190a-5p mimic by Annexin-V-FITC-H and PI staining based flow cytometry analysis (reference value: 19.89 %); assay type: functional; parameters: scale not given: the % may be the effect or the level left
Mus musculus [10] = test: Antifibrotic activity in CCL-4 induced liver fibrosis C57/B6J mouse model assessed as reduction in disorganized and interlaced fibers at 100 mg/kg/day, ip measured after 72 hrs post last dose by HE/Sirus red/TUNEL staining based analysis; assay type: functional, organism-based
Hepatocyte [11] = test: Inhibition of TGF-beta1 induced apoptosis in C57/B6J mouse primary hepatocytes assessed as dead cells at 25 uM by Annexin-V-FITC-H and PI staining based flow cytometry analysis (reference value: 3.09 %); assay type: functional; parameters: scale not given: the % may be the effect or the level left
Hepatocyte [12] = test: Inhibition of TGF-beta1 induced apoptosis in C57/B6J mouse primary hepatocytes assessed as dead cells at 50 uM by Annexin-V-FITC-H and PI staining based flow cytometry analysis (reference value: 3.09 %); assay type: functional; parameters: scale not given: the % may be the effect or the level left
Hepatocyte [13] = test: Inhibition of TGF-beta1 induced apoptosis in C57/B6J mouse primary hepatocytes assessed as dead cells at 10 uM by Annexin-V-FITC-H and PI staining based flow cytometry analysis (reference value: 3.09 %); assay type: functional; parameters: scale not given: the % may be the effect or the level left
Mus musculus [14] = test: Antifibrotic activity in CCL-4 induced liver fibrosis C57/B6J mouse model assessed as reduction in serum AST level at 100 mg/kg/day, ip measured after 72 hrs post last dose by ELISA; assay type: functional, organism-based
Hepatocyte [15] = test: Inhibition of TGF-beta1 induced apoptosis in C57/B6J mouse primary hepatocytes assessed as late apoptotic cells by Annexin-V-FITC-H and PI staining based flow cytometry analysis (reference value: 12.03 %); assay type: functional; parameters: scale not given: the % may be the effect or the level left
Hepatocyte [16] = test: Inhibition of TGF-beta1 induced apoptosis in C57/B6J mouse primary hepatocytes assessed as live cells at 50 uM by Annexin-V-FITC-H and PI staining based flow cytometry analysis (reference value: 66.08 %); assay type: functional; parameters: scale not given: the % may be the effect or the level left
Mus musculus [17] = test: Antifibrotic activity in CCL-4 induced liver fibrosis C57/B6J mouse model assessed as reduction in miR-190a-5p expression in liver at 100 mg/kg/day, ip measured after 72 hrs post last dose by qRT-PCR analysis; assay type: functional, organism-based
Mus musculus [18] = test: Inhibition of apoptosis in CCL-4 induced liver fibrosis C57/B6J mouse model at 100 mg/kg/day, ip measured after 72 hrs post last dose; assay type: functional, organism-based
Mus musculus [19] = test: Antifibrotic activity in CCL-4 induced liver fibrosis C57/B6J mouse model assessed as reduction in hydroxyproline level in liver at 100 mg/kg/day, ip measured after 72 hrs post last dose; assay type: functional, organism-based
Hepatocyte [20] = test: Inhibition of TGF-beta1 induced apoptosis in C57/B6J mouse primary hepatocytes assessed as live cells at 25 uM by Annexin-V-FITC-H and PI staining based flow cytometry analysis (reference value: 66.08 %); assay type: functional; parameters: scale not given: the % may be the effect or the level left
Hepatocyte [21] = test: Inhibition of TGF-beta1 induced apoptosis in C57/B6J mouse primary hepatocytes assessed as early apoptotic cells by Annexin-V-FITC-H and PI staining based flow cytometry analysis (reference value: 19.89 %); assay type: functional; parameters: scale not given: the % may be the effect or the level left
Mus musculus [22] = test: Antifibrotic activity in CCL-4 induced liver fibrosis C57/B6J mouse model assessed as reduction in serum ALT level at 100 mg/kg/day, ip measured after 72 hrs post last dose by ELISA; assay type: functional, organism-based
Mus musculus [23] = test: Antifibrotic activity in CCL-4 induced liver fibrosis C57/B6J mouse model assessed as increase in albumin level in serum at 100 mg/kg/day, ip measured after 72 hrs post last dose by ELISA; assay type: functional, organism-based
Hepatocyte [24] = test: Inhibition of TGF-beta1 induced apoptosis in C57/B6J mouse primary hepatocytes assessed as early apoptotic cells at 10 uM by Annexin-V-FITC-H and PI staining based flow cytometry analysis (reference value: 18.71 %); assay type: functional; parameters: scale not given: the % may be the effect or the level left
Hepatocyte [25] = test: Inhibition of TGF-beta1 induced apoptosis in C57/B6J mouse primary hepatocytes assessed as late apoptotic cells in presence of miR-190a-5p mimic by Annexin-V-FITC-H and PI staining based flow cytometry analysis (reference value: 12.03 %); assay type: functional; parameters: scale not given: the % may be the effect or the level left
Mus musculus [26] = test: Antifibrotic activity in CCL-4 induced liver fibrosis C57/B6J mouse model assessed as increase in HGF expression at 100 mg/kg/day, ip measured after 72 hrs post last dose by Western blot analysis; assay type: functional, organism-based
Hepatocyte [27] = test: Inhibition of TGF-beta1 induced apoptosis in C57/B6J mouse primary hepatocytes assessed as decrease in cleaved-caspase-3 expression at 10 to 50 uM by Western blot analysis; assay type: functional, cell-based; details: dose 10-50 µM
Hepatocyte [28] = test: Inhibition of TGF-beta1 induced apoptosis in C57/B6J mouse primary hepatocytes assessed as increase in Bcl-2 expression at 10 to 50 uM by Western blot analysis; assay type: functional, cell-based; details: dose 10-50 µM
Mus musculus [29] = test: Antifibrotic activity in CCL-4 induced liver fibrosis C57/B6J mouse model assessed as reduction in COL1A1 mRNA expression at 100 mg/kg/day, ip measured after 72 hrs post last dose by qRT-PCR analysis; assay type: functional, organism-based
Hepatocyte [30] = test: Downregulation of miR-190a-5p expression in TGF-beta induced C57/B6J mouse primary hepatocytes at 10 to 50 uM incubated for 4 hrs by qRT-PCR analysis; assay type: functional, cell-based; details: dose 10-50 µM
Hepatocyte [31] = test: Inhibition of TGF-beta1 induced apoptosis in C57/B6J mouse primary hepatocytes assessed as dead cells in presence of miR-190a-5p mimic by Annexin-V-FITC-H and PI staining based flow cytometry analysis (reference value: 3.68 %); assay type: functional; parameters: scale not given: the % may be the effect or the level left
Hepatocyte [32] = test: Inhibition of TGF-beta1 induced apoptosis in C57/B6J mouse primary hepatocytes assessed as live cells by Annexin-V-FITC-H and PI staining based flow cytometry analysis (reference value: 64.40 %); assay type: functional; parameters: scale not given: the % may be the effect or the level left
Hepatocyte [33] = test: Inhibition of TGF-beta1 induced apoptosis in C57/B6J mouse primary hepatocytes assessed as live cells in presence of miR-190a-5p mimic by Annexin-V-FITC-H and PI staining based flow cytometry analysis (reference value: 64.40 %); assay type: functional; parameters: scale not given: the % may be the effect or the level left
Hepatocyte [34] = test: Inhibition of TGF-beta1 induced apoptosis in C57/B6J mouse primary hepatocytes assessed as early apoptotic cells at 50 uM by Annexin-V-FITC-H and PI staining based flow cytometry analysis (reference value: 18.71 %); assay type: functional; parameters: scale not given: the % may be the effect or the level left
Hepatocyte [35] = test: Inhibition of TGF-beta1 induced apoptosis in C57/B6J mouse primary hepatocytes assessed as late apoptotic cells at 25 uM by Annexin-V-FITC-H and PI staining based flow cytometry analysis (reference value: 12.12 %); assay type: functional; parameters: scale not given: the % may be the effect or the level left
Hepatocyte [36] = test: Inhibition of TGF-beta1 induced apoptosis in C57/B6J mouse primary hepatocytes assessed as live cells at 10 uM by Annexin-V-FITC-H and PI staining based flow cytometry analysis (reference value: 66.08 %); assay type: functional; parameters: scale not given: the % may be the effect or the level left
Hepatocyte [37] = test: Inhibition of TGF-beta1 induced apoptosis in C57/B6J mouse primary hepatocytes assessed as late apoptotic cells at 50 uM by Annexin-V-FITC-H and PI staining based flow cytometry analysis (reference value: 12.12 %); assay type: functional; parameters: scale not given: the % may be the effect or the level left
Hepatocyte [38] = test: Inhibition of TGF-beta1 induced apoptosis in C57/B6J mouse primary hepatocytes assessed as early apoptotic cells at 25 uM by Annexin-V-FITC-H and PI staining based flow cytometry analysis (reference value: 18.71 %); assay type: functional; parameters: scale not given: the % may be the effect or the level left
Hepatocyte [39] = test: Inhibition of TGF-beta1 induced apoptosis in C57/B6J mouse primary hepatocytes assessed as late apoptotic cells at 10 uM by Annexin-V-FITC-H and PI staining based flow cytometry analysis (reference value: 12.12 %); assay type: functional; parameters: scale not given: the % may be the effect or the level left
Hepatocyte [40] = test: Inhibition of TGF-beta1 induced apoptosis in C57/B6J mouse primary hepatocytes assessed as dead cells by Annexin-V-FITC-H and PI staining based flow cytometry analysis (reference value: 3.68 %); assay type: functional; parameters: scale not given: the % may be the effect or the level left

CC1CN(CC2CCN(Cc3ccccc3)CC2)C(=O)N(c2cccc(C(=N)N)c2)C1.O=C(O)C(F)(F)F (stereo unspecified)
Activity (Hepatocyte [1]): Active
Activity (Hepatocyte [2]): 18.6%
Activity (Hepatocyte [3]): 64.46%
Activity (Hepatocyte [4]): 13.59%
Activity (Hepatocyte [5]): Active
Activity (Hepatocyte [6]): Active
Activity (Hepatocyte [7]): 3.35%
Activity (Hepatocyte [8]): Active

Oc1ccc(/C=C/c2cc(O)cc(O)c2)cc1 [RESVERATROL]
Activity (HepG2): Active
Activity (Hepatocyte [9]): 17.41%
Activity (Mus musculus [10]): Active
Activity (Hepatocyte [11]): 1.49%
Activity (Hepatocyte [12]): 0.95%
Activity (Hepatocyte [13]): 2.44%
Activity (Mus musculus [14]): Active
Activity (Hepatocyte [15]): 5.25%
Activity (Hepatocyte [16]): 84.53%
Activity (Mus musculus [17]): Active
inhibition (Mus musculus [18]): Active
Activity (Mus musculus [19]): Active
Activity (Hepatocyte [20]): 75.96%
Activity (Hepatocyte [21]): 10.05%
Activity (Mus musculus [22]): Active
Activity (Mus musculus [23]): Active
Activity (Hepatocyte [24]): 16.37%
Activity (Hepatocyte [25]): 11.38%
Activity (Mus musculus [26]): Active
inhibition (Hepatocyte [27]): Active
inhibition (Hepatocyte [28]): Active
Activity (Mus musculus [29]): Active
Activity (Hepatocyte [30]): Active
Activity (Hepatocyte [31]): 1.12%
Activity (Hepatocyte [32]): 83.06%
Activity (Hepatocyte [33]): 70.1%
Activity (Hepatocyte [34]): 7.99%
Activity (Hepatocyte [35]): 9.96%
Activity (Hepatocyte [36]): 69.83%
Activity (Hepatocyte [37]): 6.54%
Activity (Hepatocyte [38]): 12.59%
Activity (Hepatocyte [39]): 11.36%
Activity (Hepatocyte [40]): 0.64%
